Laboratory results taken from article PMC4607724, “Discovery and optimisation studies of antimalarial phenotypic hits” (European Journal of Medicinal Chemistry, 2015).
Values after ≈ are worked out from the molar mass of the structure shown. Like-named read-outs stand apart in the source and are kept apart here.

Columns and labels:
[1] = Chromatographic LogD estimation (gLogD); format: physicochemical; conditions: chromatographic gLogD technique, pH 7.4
Procedure: (§1) IV. Physicochemical Evaluation […]
Chromatographic Log D Estimation: The partition coefficient (gLogDpH 7.4) of 20 was estimated by correlation of its chromatographic retention properties with the retention characteristics of a series of standard compounds with known partition coefficient values. Data were collected using a Waters 2785 HPLC with a Waters 2487 dual channel UV detector with a Phenomenex Synergi Hydro-RP 4 µm (30 mm x 2 mm) column. The mobile phase was aqueous buffer (50 mM ammonium acetate, pH 7.4) and acetonitrile with an acetonitrile gradient of 0-100% over 10 min. Compound elution was monitored at 220 and 254 nm. […]

[2] = Aqueous solubility estimation by nephelometry; format: physicochemical; conditions: 1% DMSO
Procedure: as §1
Solubility Estimation: Aqueous solubility was estimated by nephelometry. A concentrated
stock solution prepared in DMSO was spiked into either pH 6.5 phosphate buffer or 0.01 N HCl
(approx. pH 2.0) with the final DMSO concentration being 1%. Samples were then analyzed by
Nephelometry to determine the solubility range as described previously.[9] […]

[3] = In vitro cytotoxicity assay in L-6 cells (Alamar Blue); conditions: rat, L-6 cells (rat skeletal myoblasts)
Procedure: (§2) VI. Design and Results of the in vitro & in vivo Studies.
A. Drug inhibition of in vitro cultured P. falciparum parasite:[2] […]
B. In vitro cytotoxicity assay: [2] Assays were performed in 96-well microtiter plates, each well containing 100 µl of RPMI 1640 medium supplemented with 1% L-glutamine (200mM) and 10% fetal bovine serum, and 4 x 10^4 L-6 cells (a primary cell line derived from rat skeletal myoblasts).
Serial drug dilutions of seven 3-fold dilution steps covering a range from 90 to 0.123 µg/mL were prepared. After 72 h of incubation the plates were inspected under an inverted microscope to assure growth of the controls and sterile conditions. 10µL of Alamar Blue was then added to each well and the plates incubated for another 2 h. Then the plates were read with a Spectramax Gemini XS microplatefluorometer (Molecular Devices Cooperation, Sunnyvale, CA, USA) using an excitation wave length of 536 nm and an emission wave length of 588 nm. Data were analysed using the microplate reader software Softmax Pro (Molecular Devices Cooperation, Sunnyvale, CA, USA).

[4] = system: P. falciparum K1; test: In vitro activity against erythrocytic stages of P. falciparum, 3H-hypoxanthine incorporation assay; format: cell-based; conditions: Plasmodium falciparum; K1 strain (chloroquine and pyrimethamine resistant); means of two independent assays; read-out: P. falc. EC50
Procedure: as §2
A. Drug inhibition of in vitro cultured P. falciparum parasite:[2] All in vitro assays were carried out twice independently in duplicate.In vitro activity against theerythrocytic stages of P. falciparum was determined by using a 3H-hypoxanthine incorporation assay, using the chloroquine and pyrimethamine resistant K1 strain and the standard drugs chloroquine (Sigma C6628) and artemisinin (Arteannuin, Qinghaosu; Sigma 36,159- 3). Compounds were dissolved in DMSO at 10 mg/mL and added to parasite cultures incubated in RPMI 1640 medium without hypoxanthine, supplemented with HEPES (5.94 g/L), NaHCO3 (2.1 g/L), neomycin (100U/mL), AlbumaxR (5 g/L), and washed human red cells A+ at 2.5% haematocrit (0.3% parasitaemia). Serial doubling dilutions of each drug were prepared in 96-well microtiter plates and incubated in a humidified atmosphere at 37 °C; 4% CO 2, 3% O2, 93% N2. After 48 h, 50 µLof 3H-hypoxanthine (= 0.5 µCi) was added to each well of the plate. The plates were incubated for an additional 24 h under the same conditions. The plates were then harvested with a Betaplate cell harvester (Wallac, Zurich, Switzerland), and the red blood cells were transferred onto a glass fiber filter and then washed with distilled water. The dried filters were inserted into a plastic foil with 10 mL of scintillation fluid and were counted in a Betaplate™ liquid scintillation counter (Wallac, Zurich, Switzerland); IC50values were calculated from sigmoidal inhibition curves using Microsoft Excel. […]

[5] = Metabolic stability, NADPH-dependent degradation in human liver microsomes; format: in vitro ADME
Procedure: (§3) Compound 20 (1 µM) was incubated at 37 ° C with human or mouse liver microsomes (BD Gentest, Discovery Labware Inc., Woburn, MA). The reaction was initiated by the addition of an NADPH-regenerating system containing 1 mg/mL NADP, 1 mg/mL glucose-6-phosphate, 1 U/mL glucose-6-phosphate dehydrogenase, and 0.67 mg/mL MgCl2and quenched at various time points over the incubation period (60 min) by the addition of ice cold acetonitrile. Samples were also incubated in the absence of co-factor to monitor for non-specific degradation. The relative loss of parent compound and formation of metabolic products were monitored by LC/MS using a Waters/Micromass LCT instrument.
(§4) Compound concentration versus time data were fitted to an exponential decay function to determine the first-order rate constant for substrate depletion which was used to obtain the in vitro intrinsic clearance (in vitro CLint), and then scaled to predict the human intrinsic clearance (scaling parameters included liver mass of 25.7 g liver/kg body weight for human and 87.5 g liver/kg body weight for mouse and microsomal protein content of 45 mg microsomal protein/g liver mass for […]
(§5) both species)[10]. […]

[6] = Metabolic stability, NADPH-dependent degradation in mouse liver microsomes; format: in vitro ADME
Procedure: as §3, §4, §5

## Cc1cc(/C=C2\S/C(=N\c3ccccc3)N(C3CCCCC3)C2=O)c(C)n1-c1ccc(F)cc1 [Compound 20, (2Z, 5Z)-3-Cyclohexyl-5-((1-(4-fluorophenyl)-2,5-dimethyl-1H-pyrrol-3-yl)methylene)-2-(phenylimino)thiazolidin-4-one]
[1]
  chromatographic logD: 7.1
[2]; pH 2.0 (0.01 N HCl)
  Solubility pH 2.0: poor aqueous solubility
[2]; pH 2.0 (0.01 N HCl), read-out: Solubility pH 2.0
  solubility: < 0.8 µg/mL
[2]; pH 6.5 phosphate buffer
  Solubility pH 6.5: poor aqueous solubility
[2]; pH 6.5 phosphate buffer, read-out: Solubility pH 6.5
  solubility: 0.8 to 1.6 µg/mL (≈ 1.69 to 3.38 µM)
[3]
  EC50 at 72 h: > 190 µM
[4]
  EC50: 2 µM
[5]; human liver microsomes, LC/MS
  Metabolites detected: no obvious metabolites were detected and None
[5]; human, well-stirred model
  Microsome predicted hepatic extraction ratio EH: 0.67
[5]; incubation with human liver microsomes
  NADPH-dependent degradation: rapid NADPH-dependent degradation
[5]; liver microsomes, human, scaled from in vitro CLint, read-out: Microsome predicted in vivo CLint
  CLint scaled at 1 µM: 42 mL/min/kg
[6]; incubation with mouse liver microsomes
  NADPH-dependent degradation: rapid NADPH-dependent degradation
[6]; liver microsomes, mouse, scaled from in vitro CLint, read-out: Microsome predicted in vivo CLint
  CLint scaled at 1 µM: 216 mL/min/kg
[6]; mouse liver microsomes, 1 µM, 37 °C, NADPH
  In vitro CLint: 0.055 ml/min/mg Protein
[6]; mouse liver microsomes, LC/MS
  Metabolites detected: no obvious metabolites were detected and None
[6]; mouse, well-stirred model
  Microsome predicted hepatic extraction ratio EH: 0.71
